Measured values reported in patent US20130252286A1, “TRANSFORMANT OF YEAST OF GENUS SCHIZOSACCHAROMYCES, AND METHOD FOR PRODUCING SAME” (ASAHI GLASS COMPANY, LIMITED, priority 2010, published 2013).

B1: AaBGL1: β-glucosidase 1 of Aspergillus aculeatus F-50 secreted by S. pombe ASP3326 strain, crude enzyme after ammonium sulfate and ultrafiltration (protein, listed as Aspergillus aculeatus)
chain: DELAFSPPFYPSPWANGQGEWAEAYQRAVAIVSQMTLDEKVNLTTGTGWELEKCVGQTGGVPRLNIGGMCLQDSPLGIRDSDYNSAFPAGVNVAATWDKNLAYLRGQAMGQEFSDKGIDVQLGPAAGPLGRSPDGGRNWEGFSPDPALTGVLFAETIKGIQDAGVVATAKHYILNEQEHFRQVAEAAGYGFNISDTISSNVDDKTIHEMYLWPFADAVRAGVGAIMCSYNQINNSYGCQNSYTLNKLLKAELGFQGFVMSDWGAHHSGVGSALAGLDMSMPGDITFDSATSFWGTNLTIAVLNGTVPQWRVDDMAVRIMAAYYKVGRDRLYQPPNFSSWTRDEYGFKYFYPQEGPYEKVNHFVNVQRNHSEVIRKLGADSTVLLKNNNALPLTGKERKVAILGEDAGSNSYGANGCSDRGCDNGTLAMAWGSGTAEFPYLVTPEQAIQAEVLKHKGSVYAITDNWALSQVETLAKQASVSLVFVNSDAGEGYISVDGNEGDRNNLTLWKNGDNLIKAAANNCNNTIVVIHSVGPVLVDEWYDHPNVTAILWAGLPGQESGNSLADVLYGRVNPGAKSPFTWGKTREAYGDYLVRELNNGNGAPQDDFSEGVFIDYRGFDKRNETPIYEFGHGLSYTTFNYSGLHIQVLNASSNAQVATETGAAPTFGQVGNASDYVYPEGLTRISKFIYPWLNSTDLKASSGDPYYGVDTAEHVPEGATDGSPQPVLPAGGGSGGNPRLYDELIRVSVTVKNTGRVAGDAVPQLYVSLGGPNEPKVVLRKFDRLTLKPSEETVWTTTLTRRDLSNWDVAAQDWVITSYPKKVHVGSSSRQLPLHAALPKVQ

How the values were obtained:
crude AaBGL1 [1] = biological target: T1, crude AaBGL1 (Aspergillus aculeatus, UniProt P48825); assay: Inhibition by various sugar; type: biochemical; parameters: P3 secretion signal (N, cleaved yes); made in house; culture supernatant, ammonium sulfate treatment and ultrafiltration, crude enzyme; conditions: 1 mM pNPG; for inhibition of crude AaBGL1 by the sugar (in words): 0.1 to 10 mM sugar
Procedure: To 10 μl of 20 mM p-nitrophenyl-β-D-glucoside (hereinafter abbreviated as pNPG), 10 μl of 1M sodium acetate buffer solution (pH 4.5) and 130 μl of water were added, and then 50 μl of the diluted enzyme sample was introduced for reacting them at 37° C. for 10 minutes. 100 μl of the reaction mixture was mixed with 100 μl of 2% sodium carbonate solution to terminate reaction, and then the amount of liberated p-nitrophenol was colorimetrically measured at a wavelength of 450 nm.
By using 1 mM pNPG containing various sugar (0.1 mM, 1.0 mM, 10 mM) as a substrate, the enzyme was reacted in accordance with the activity measurement method. The numerical values shown in Table 5 indicate the ratio (%) of the measured enzymatic activity to the enzymatic activity under a condition where no sugar is contained.

crude AaBGL1 [2] = biological target: T1, crude AaBGL1; assay: Substrate specificity; type: biochemical; parameters: P3 secretion signal (N, cleaved yes); made in house; host or cells: Schizosaccharomyces pombe ASP3326 strain (transformed with pSL6P3AaBGL1); culture supernatant, ammonium sulfate treatment and ultrafiltration, crude enzyme; conditions: 0.5% (w/v) ICOS, 0.5% (w/v) cellobiose, 1 mM pNPG, 1 mM pNP-cellobiose; for Specific activity: pH 4.5, 37° C., 10 minutes; for Relative activity: relative to cellobiose
Procedure: Measured in accordance with the activity measurement method by using various substrates. The specific activities and relative activities of the enzyme to each of 0.5% (w/v) ICOS, 0.5% (w/v) cellobiose, 1 mM pNPG, and 1 mM pNP-cellobiose are shown in Table 6.
To 100 μl of 2 mM p-nitrophenyl-β-D-cellobioside (hereinafter referred to as pNP-cellobiose), 10 μl of 1 M sodium acetate buffer solution (pH 4.5) and 40 μl of water were added, followed by addition of 50 μl of the diluted enzyme sample to cultivate for 10 minutes at 37° C. 100 μl of the reaction mixture was mixed with 100 μl of 2% sodium carbonate solution to terminate reaction, and then the amount of liberated p-nitrophenol was colorimetrically measured at a wavelength of 450 nm.
The amount of enzyme that produces 1 μmol of p-nitrophenol per minute was defined as 1 U.
(§1) To 100 μl of 1% cellobiose solution, 10 μl of 1M sodium acetate buffer solution (pH 4.5) was added, followed by addition of 90 μl of the diluted enzyme sample to cultivate for 10 minutes at 37° C. 50 μl of 1N HCl was added to terminate reaction, and then 50 μl of a neutralizing solution comprised of 1M Tris solution:2N sodium hydroxide solution in a ratio of 4:1 was added for neutralization to measure the amount of glucose in the mixture by using glucostat method (Glucose kit, Glucose CII-Test Wako, manufactured by Wako Pure Chemical Industries).
The amount of enzyme that produces 1 μmol of glucose per minute was defined as 1 U.
as §1, with “insoluble cellooligosaccharide (hereinafter referred to as ICOS)” for “cellobiose”

Thermostability test = type: physicochemical; conditions: crude enzyme, treated at each temperature for 10 minutes
Procedure: The enzyme was treated at each temperature for 10 minutes, and then reacted by using 1 mM pNPG as a substrate and 50 mM acetate buffer solution (pH 4.5). […] (FIG. 5).
With regard to the each culture supernatant, the thermostability test was carried out in accordance with the thermostability measurement method described in Test Example 7 at a temperature of from 50 to 75° C.
With regard to the each purified sample, the thermostability test was carried out in accordance with the thermostability measurement method described in Test Example 7 at a temperature of from 50 to 75° C.

[3] = Optimal temperature test of the crude enzyme; type: biochemical; conditions: 1 mM pNPG, 50 mM acetate buffer pH 4.5, 10 minutes
Procedure: By using 1 mM pNPG as a substrate and 50 mM acetate buffer solution (pH 4.5), the enzyme was reacted for 10 minutes at each temperature. […] (FIG. 3).

Glucose inhibition test = type: biochemical; conditions: 1 mM pNPG
Procedure: With regard to glucose inhibition, the crude enzyme obtained in Test Example 6 was compared with a commercially available β-glucosidase Novozyme 188 (manufactured by Novozymes). The glucose inhibition activity was measured in accordance with the activity measurement method by using 1 mM pNPG as a substrate and adding glucose to the reaction mixture in a concentration of from 0 to 100 mM. The reaction temperature was 37° C., the pH was 4.5, and the reaction time was 10 minutes. The other reaction conditions were the same as in the activity measurement method described in Test Example 4.
With regard to the each culture supernatant, the glucose inhibition activity was measured in accordance with the activity measurement method, by using 1 mM pNPG as a substrate and adding from 0 to 100 mM of glucose to the reaction mixture.

Row | Molecule | inhibition of crude AaBGL1 by the sugar (in words) (crude AaBGL1 [1]) | ratio of enzymatic activity to activity without sugar (crude AaBGL1 [1]; sugar concentration 0.1 mM) [%] | ratio of enzymatic activity to activity without sugar (crude AaBGL1 [1]; sugar concentration 1.0 mM) [%] | ratio of enzymatic activity to activity without sugar (crude AaBGL1 [1]; sugar concentration 10 mM) [%] | other results
1 | O=C(CO)[C@@H](O)[C@H](O)[C@H](O)CO [Fructose] | not substantially inhibited | 99 | 106 | 115 | –
2 | O=[N+]([O-])c1ccc(O[C@@H]2O[C@H](CO)[C@@H](O[C@@H]3O[C@H](CO)[C@@H](O)[C@H](O)[C@H]3O)[C@H](O)[C@H]2O)cc1 [pNP-cellobiose, p-nitrophenyl-β-D-cellobioside] | – | – | – | – | Specific activity (crude AaBGL1 [2]): 9.3 U/mg; Relative activity (crude AaBGL1 [2]): 22%
3 | OC[C@H]1O[C@@](CO)(O[C@H]2O[C@H](CO)[C@@H](O)[C@H](O)[C@H]2O)[C@@H](O)[C@@H]1O [Sucrose] | not substantially inhibited | 96 | 99 | 98 | –
4 | OC[C@@H](O)[C@@H](O)[C@H](O)[C@@H](O)CO [Sorbitol] | not substantially inhibited | 98 | 99 | 101 | –
5 | OC[C@H]1O[C@H](O[C@H]2[C@H](O)[C@@H](O)[C@H](O)O[C@@H]2CO)[C@H](O)[C@@H](O)[C@@H]1O [Maltose] | inhibited | 99 | 93 | 68 | –
6 | O=C[C@H](O)[C@@H](O)[C@H](O)CO [Xylose] | not substantially inhibited | 98 | 99 | 100 | –
7 | O=C[C@H](O)[C@@H](O)[C@H](O[C@@H]1O[C@H](CO)[C@@H](O)[C@H](O)[C@H]1O)[C@H](O)CO [Cellobiose] | – | – | – | – | Specific activity (crude AaBGL1 [2]): 42.1 U/mg; Relative activity (crude AaBGL1 [2]): 100%
8 | OC[C@H]1O[C@@H](O[C@H]2[C@H](O)[C@@H](O)C(O)O[C@@H]2CO)[C@H](O)[C@@H](O)[C@H]1O (stereo partly drawn) [Lactose] | not substantially inhibited | 99 | 100 | 100 | –
9 | O=C[C@H](O)[C@@H](O)[C@@H](O)[C@H](O)CO [Galactose] | not substantially inhibited | 97 | 98 | 101 | –
10 | O=[N+]([O-])c1ccc(O[C@@H]2O[C@H](CO)[C@@H](O)[C@H](O)[C@H]2O)cc1 [pNPG, p-nitrophenyl-β-D-glucoside] | – | – | – | – | Specific activity (crude AaBGL1 [2]): 25.7 U/mg; Relative activity (crude AaBGL1 [2]): 61%
11 | B1 | – | – | – | – | thermostability: stable until (Thermostability test): about 60 °C; optimal temperature [3]: about 65 °C; resistance to glucose inhibition (comparison in words) (Glucose inhibition test; glucose 0 to 100 mM): more resistant to glucose inhibition than Novozyme 188; IC50 (Glucose inhibition test; glucose 0 to 100 mM, 37° C., pH 4.5, 10 minutes, read-out: glucose concentration (I50 value) at which 50% inhibition of the enzymatic activity occurs): 25 mM; activity maintained in the presence of glucose (Glucose inhibition test; 20 mM of glucose added): at least 50%
